Laboratory results: article PMC3328629 (2012)
Blank lines part the entries; values can stand above or below the compound they belong to.

Columns and labels:
[1] = biological target: T1, S-adenosyl-L-homocysteine hydrolase (HsSAHH) (Homo sapiens, UniProt P23526); assay: biochemical
T1 sequence (P23526 2-432): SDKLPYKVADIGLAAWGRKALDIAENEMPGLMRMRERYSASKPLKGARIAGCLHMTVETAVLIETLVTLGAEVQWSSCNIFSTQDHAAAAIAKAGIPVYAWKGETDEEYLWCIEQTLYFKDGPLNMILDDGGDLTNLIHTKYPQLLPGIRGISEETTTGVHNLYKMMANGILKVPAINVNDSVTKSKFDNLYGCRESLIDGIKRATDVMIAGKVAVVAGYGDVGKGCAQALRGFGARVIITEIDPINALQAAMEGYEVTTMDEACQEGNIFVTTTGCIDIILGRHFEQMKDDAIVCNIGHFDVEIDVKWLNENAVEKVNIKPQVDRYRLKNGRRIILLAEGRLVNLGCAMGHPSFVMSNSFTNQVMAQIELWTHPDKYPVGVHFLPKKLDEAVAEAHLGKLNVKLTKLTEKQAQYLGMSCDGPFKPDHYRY

[2] = biological target: T1, S-adenosyl-L-homocysteine hydrolase (HsSAHH)
[3] = biological target: T1, S-adenosyl-L-homocysteine hydrolase (HsSAHH); assay: luciferase-coupled adenosine assay; type: biochemical
[4] = biological target: T1, S-adenosyl-L-homocysteine hydrolase (HsSAHH); assay: Michaelis-Menten kinetics; type: biochemical

Ki [1]: 0.0113 ± 0.0006 µM
SMILES: Nc1ncnc2c1ncn2C[C@@H](O)[C@@H](O)C(=O)O [D-eritadenine]

SMILES: Nc1ncnc2c1ncn2[C@@H]1C=C(CO)[C@@H](O)[C@H]1O [INH, neplanocin A]
HPLC analysis of adenosine formation without coupling enzymes [2]: Under these conditions (cf. Supplementary Methods, Supporting Information), INH totally inhibits SAHH.

Ki [3]: 2.17 ± 0.08 µM
SMILES: NC[C@H]1O[C@@H](n2cnc3c(N)ncnc32)[C@H](O)[C@@H]1O [INH-1, 5′-deoxy-5′-amino-β-D-adenosine]

Km [4]: 22 ± 2 µM
SMILES: Nc1ncnc2c1ncn2[C@@H]1O[C@H](CSCC[C@H](N)C(=O)O)[C@@H](O)[C@H]1O [SAH, S-adenosyl-L-homocysteine]
